Experimental data taken from paper PMC6127842, “Identification of flavonolignans from Silybum marianum seeds as allosteric protein tyrosine phosphatase 1B inhibitors” (Journal of Enzyme Inhibition and Medicinal Chemistry, 2018).

What was measured:
[1] = target: T1, PTP1B (human recombinant) (Homo sapiens, UniProt P18031); test: PTP1B inhibitory activity assay with p-NPP as substrate; assay type: biochemical; details: for IC50: p-NPP 4 mM, pH 6.0, 37 °C, 30 min, means ± SD, n = 3, NA = no activity >50 μM, read-out: IC50 against PTP1B
T1 construct: purchased Enzo Life Sciences, Inc. (Lausen, Switzerland)
T1 sequence (P18031 1-435): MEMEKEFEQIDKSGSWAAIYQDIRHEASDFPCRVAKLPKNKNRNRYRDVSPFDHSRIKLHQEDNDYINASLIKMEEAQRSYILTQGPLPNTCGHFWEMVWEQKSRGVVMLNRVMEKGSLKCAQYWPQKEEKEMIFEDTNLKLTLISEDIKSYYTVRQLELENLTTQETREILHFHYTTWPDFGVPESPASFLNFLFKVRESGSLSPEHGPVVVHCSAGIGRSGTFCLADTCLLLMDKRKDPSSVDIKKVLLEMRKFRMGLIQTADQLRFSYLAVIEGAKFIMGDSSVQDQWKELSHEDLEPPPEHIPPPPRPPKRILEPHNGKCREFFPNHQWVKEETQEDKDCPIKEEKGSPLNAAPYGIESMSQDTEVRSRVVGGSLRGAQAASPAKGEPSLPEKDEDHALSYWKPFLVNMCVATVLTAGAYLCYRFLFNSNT
Method: (§1) PTP1B inhibitory activity was measured using p-NPP as the substrate. A mixture consisting of p-NPP and PTP1B in a buffer containing 0.06 M citrate (pH 6.0), 0.1 M NaCl, 1 mM EDTA, and 1 mM DTT with or without a tested compound solution (prepared in the above buffer solution containing 30% dimethyl sulfoxide), was incubated at 37 °C for 30 min. The substrate was used at a concentration of 4 mM. The reaction was terminated by adding 20 µL of 10 M NaOH. The reaction mixture was blended by a microplate mixer for 5 min and the amount of produced p-nitrophenol was tested by measuring the absorbance at 405 nm. The blank was measured in the same way except adding a buffer solution instead of the enzyme.

[2] = target: T1, PTP1B (human recombinant); test: Kinetic analysis of PTP1B inhibition (Lineweaver–Burk, secondary plot); assay type: biochemical; details: for Inhibition type: Lineweaver–Burk, p-NPP 4, 8, 16 mM; for Ki: secondary plot of Lineweaver–Burk slopes
Method: as §1, with “enzyme. […] All compounds used for bioassay were confirmed the purity >98% by HPLC-PDA and ^1H NMR spectroscopic analyses.” for “enzyme.”
To elucidate the inhibition mode, the inhibition kinetics of compounds 1–5 were analyzed by the Lineweaver–Burk method with various substrate concentrations of p-NPP (4, 8, 16 mM). The initial reaction velocities were measured with and without the inhibitor.
(A) Lineweaver–Burk plots of compounds 1–5. The final concentration of compounds 1–5 was as follows: 1; 0, 1.0, 2.0, and 3.0 μM, 2; 0, 4.0, 6.0, and 8.0 μM, 3; 0, 1.3, 2.5, and 3.0 μM, 4; 0, 1.0, 2.0, and 3.0 μM, and 5; 0, 4.0, 6.0, and 8.0 μM. (B) The second plots of A.

[3] = target: T2, T-cell protein tyrosine phosphatase (TCPTP, human recombinant) (Homo sapiens, UniProt P17706); test: TCPTP inhibitory activity assay with p-NPP; assay type: biochemical; details: mean ± SD, three experiments, read-out: Inhibition rate (%) TCPTP
T2 construct: purchased Enzo Life Sciences, Inc. (Lausen, Switzerland)
T2 sequence (P17706 1-415): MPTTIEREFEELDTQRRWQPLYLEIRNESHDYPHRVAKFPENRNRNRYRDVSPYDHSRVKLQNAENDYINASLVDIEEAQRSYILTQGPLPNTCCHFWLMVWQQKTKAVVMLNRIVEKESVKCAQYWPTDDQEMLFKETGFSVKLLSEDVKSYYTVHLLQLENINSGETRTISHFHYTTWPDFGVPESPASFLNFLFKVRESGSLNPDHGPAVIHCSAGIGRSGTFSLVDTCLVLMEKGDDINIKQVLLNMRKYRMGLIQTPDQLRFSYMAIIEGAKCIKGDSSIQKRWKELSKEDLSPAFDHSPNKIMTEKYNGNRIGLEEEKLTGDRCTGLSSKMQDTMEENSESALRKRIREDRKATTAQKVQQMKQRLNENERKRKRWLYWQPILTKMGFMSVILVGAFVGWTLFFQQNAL

[4] = target: T3, Vaccinia H1-related phosphatase (VHR, human recombinant) (Homo sapiens, UniProt P51452); test: biochemical; details: read-out: Inhibition rate (%) VHR
T3 construct: purchased Enzo Life Sciences, Inc. (Lausen, Switzerland)

[5] = target: T4, SHP-1 (human recombinant) (Homo sapiens, UniProt P29350); test: SHP-1 inhibitory activity assay with p-NPP; assay type: biochemical; details: mean ± SD, three experiments, read-out: Inhibition rate (%) SHP-1
T4 construct: purchased Sigma-Aldrich Co., LLC; (St Louis, MO)

[6] = target: T5, SHP-2 (human recombinant) (Homo sapiens, UniProt Q06124); test: SHP-2 inhibitory activity assay with p-NPP; assay type: biochemical; details: mean ± SD, three experiments, read-out: Inhibition rate (%) SHP-2
T5 construct: purchased Sigma-Aldrich Co., LLC; (St Louis, MO)
T5 sequence (Q06124 1-593): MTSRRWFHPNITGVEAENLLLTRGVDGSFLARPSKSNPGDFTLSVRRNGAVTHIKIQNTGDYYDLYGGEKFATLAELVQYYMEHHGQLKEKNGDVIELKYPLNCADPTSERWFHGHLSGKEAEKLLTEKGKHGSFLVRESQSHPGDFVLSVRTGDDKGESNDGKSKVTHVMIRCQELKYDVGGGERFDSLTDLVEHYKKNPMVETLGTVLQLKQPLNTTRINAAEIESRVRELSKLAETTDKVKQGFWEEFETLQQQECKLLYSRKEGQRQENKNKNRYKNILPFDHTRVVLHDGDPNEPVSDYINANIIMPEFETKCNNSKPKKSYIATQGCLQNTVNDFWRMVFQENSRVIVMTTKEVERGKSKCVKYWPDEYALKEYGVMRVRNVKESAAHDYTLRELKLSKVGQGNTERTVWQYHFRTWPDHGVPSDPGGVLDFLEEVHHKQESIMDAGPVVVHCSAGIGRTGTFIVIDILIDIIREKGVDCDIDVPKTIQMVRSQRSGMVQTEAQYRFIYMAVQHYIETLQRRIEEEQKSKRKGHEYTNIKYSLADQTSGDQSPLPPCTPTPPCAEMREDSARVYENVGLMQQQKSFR

[7] = mean ± SD, three experiments, read-out: Inhibition rate (%) PTP1B

T4 sequence (P29350 whole entry): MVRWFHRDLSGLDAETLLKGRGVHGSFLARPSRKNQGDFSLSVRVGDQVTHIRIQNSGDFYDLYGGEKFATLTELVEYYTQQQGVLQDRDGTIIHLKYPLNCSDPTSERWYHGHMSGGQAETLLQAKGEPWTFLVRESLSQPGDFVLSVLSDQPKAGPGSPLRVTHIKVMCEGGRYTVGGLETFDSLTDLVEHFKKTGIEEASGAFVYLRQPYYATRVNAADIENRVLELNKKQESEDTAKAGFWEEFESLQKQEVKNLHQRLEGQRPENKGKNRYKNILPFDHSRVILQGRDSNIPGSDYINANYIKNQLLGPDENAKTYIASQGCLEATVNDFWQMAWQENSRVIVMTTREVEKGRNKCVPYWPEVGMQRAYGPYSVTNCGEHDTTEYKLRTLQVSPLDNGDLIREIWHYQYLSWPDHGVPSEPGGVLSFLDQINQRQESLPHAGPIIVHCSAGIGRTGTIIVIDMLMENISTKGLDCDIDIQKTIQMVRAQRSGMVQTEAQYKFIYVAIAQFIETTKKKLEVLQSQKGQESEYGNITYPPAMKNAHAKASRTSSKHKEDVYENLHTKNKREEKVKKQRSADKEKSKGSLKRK
T3 sequence (P51452 whole entry): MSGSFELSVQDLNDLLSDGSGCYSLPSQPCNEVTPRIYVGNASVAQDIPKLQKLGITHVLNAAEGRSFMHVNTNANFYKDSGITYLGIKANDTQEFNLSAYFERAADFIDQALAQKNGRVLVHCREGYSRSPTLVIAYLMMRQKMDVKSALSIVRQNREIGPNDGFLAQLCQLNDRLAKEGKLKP

With `COc1cc([C@@H]2Oc3c(O)ccc([C@H]4Oc5cc(O)cc(O)c5C(=O)[C@@H]4O)c3[C@H]2CO)ccc1O` [Compound 7, Isosilychristin A] the IC50 [1] was 6.55 ± 0.09 µM.

With `COc1cc([C@@H]2[C@H]3CO[C@@]4(O)C(=O)[C@@H]2C=C([C@H]2Oc5cc(O)cc(O)c5C(=O)[C@@H]2O)[C@@H]34)ccc1O` [Compound 9, Silydianin] the IC50 [1] was over 50 µM.

`COc1cc([C@H]2Oc3c(O)cc([C@H]4Oc5cc(O)cc(O)c5C(=O)[C@@H]4O)cc3[C@@H]2CO)ccc1O` [Compound 6, Silychristin B] was tested, and the IC50 [1] was 23.9 ± 2.25 µM.

`COc1cc(C2C3C=C(c4oc5cc(O)cc(O)c5c(=O)c4O)C4C2COC4(O)C3=O)ccc1O` (stereo not shown) [Compound 10, Dehydrosilydianin] gave an IC50 [1] of over 50 µM.

`COc1cc([C@@H]2Oc3cc([C@H]4Oc5cc(O)cc(O)c5C(=O)[C@@H]4O)ccc3O[C@H]2CO)ccc1O` [Compound 2, Silybin B] was tested, and the inhibition at 12 µM ([1]; 12 μM, mean ± SD, three experiments, read-out: Inhibition rate (%) PTP1B) was 89 ± 2.1%, the IC50 [1] was 5.65 ± 0.2 µM and the Inhibition type [2] was “Non-competitive”. For the same molecule, the Ki [2] was 4.05 µM, the inhibition at 12 µM ([3]; 12 μM) was 32.1 ± 2.3% and the inhibition at 12 µM [4] was 65.6 ± 4.2%. It also gave an inhibition at 12 µM ([5]; 12 μM) of 34.4 ± 1.9% and an inhibition at 12 µM ([6]; 12 μM) of 37.5 ± 2.2%.

For `COc1cc([C@H]2Oc3ccc([C@H]4Oc5cc(O)cc(O)c5C(=O)[C@@H]4O)cc3O[C@@H]2CO)ccc1O` [Compound 3, Isosilybin A], the inhibition at 6 µM ([1]; 6.0 μM, mean ± SD, three experiments, read-out: Inhibition rate (%) PTP1B) was 90.7 ± 1.1%, the IC50 [1] was 2.65 ± 0.13 µM and the Inhibition type [2] was “Non-competitive”. It also gave a Ki [2] of 2.25 µM, an inhibition at 6 µM ([3]; 6.0 μM) of 27.5 ± 0.8% and an inhibition at 6 µM [4] of 59.2 ± 2.4%. It also gave an inhibition at 6 µM ([5]; 6.0 μM) of 30.6 ± 1.8% and an inhibition at 6 µM ([6]; 6.0 μM) of 49 ± 2.1%.

`COc1cc([C@@H]2Oc3c(O)cc(-c4oc5cc(O)cc(O)c5c(=O)c4O)cc3[C@H]2CO)ccc1O` [Compound 8, Dehydrosilychristin A] showed an IC50 [1] of 7.18 ± 0.12 µM.

For `COc1cc([C@@H]2Oc3ccc([C@H]4Oc5cc(O)cc(O)c5C(=O)[C@@H]4O)cc3O[C@H]2CO)ccc1O` [Compound 4, Isosilybin B], the inhibition at 4 µM [1, 7] was 92.1 ± 1.7%, the IC50 [1] was 1.37 ± 0.22 µM and the Inhibition type [2] was “Non-competitive”. It also gave a Ki [2] of 1.03 µM, an inhibition at 4 µM [3] of 16.4 ± 1.5% and an inhibition at 4 µM [4] of 61.4 ± 3%. The inhibition at 4 µM [5] was 22.9 ± 2.1% and the inhibition at 4 µM [6] was 50.1 ± 1.5%.

With `COc1cc([C@H]2Oc3cc([C@H]4Oc5cc(O)cc(O)c5C(=O)[C@@H]4O)ccc3O[C@@H]2CO)ccc1O` [Compound 1, Silybin A] the inhibition at 4 µM [1, 7] was 90.3 ± 0.9%, the IC50 [1] was 1.54 ± 0.22 µM and the Inhibition type [2] was “Non-competitive”. For the same molecule, the Ki [2] was 1.25 µM, the inhibition at 4 µM [3] was 15.7 ± 1.9% and the inhibition at 4 µM [4] was 60.6 ± 2.2%. The inhibition at 4 µM [5] was 33.4 ± 0.4% and the inhibition at 4 µM [6] was 32.7 ± 1.8%.

For `COc1cc([C@@H]2Oc3c(O)cc([C@H]4Oc5cc(O)cc(O)c5C(=O)[C@@H]4O)cc3[C@H]2CO)ccc1O` [Compound 5, Silychristin A], the inhibition at 20 µM ([1]; 20 μM, mean ± SD, three experiments, read-out: Inhibition rate (%) PTP1B) was 89.2 ± 2.6%, the IC50 [1] was 5.58 ± 0.33 µM and the Inhibition type [2] was “Non-competitive”. The Ki [2] was 3.95 µM, the inhibition at 20 µM ([3]; 20 μM) was 32.2 ± 1.9% and the inhibition at 20 µM [4] was 67.5 ± 1.4%. For the same molecule, the inhibition at 20 µM ([5]; 20 μM) was 25.9 ± 1.4% and the inhibition at 20 µM ([6]; 20 μM) was 48.6 ± 1.9%.

Work on `COc1cc(C2C(C(=O)O)C=C(C3Oc4cc(O)cc(O)c4C(=O)C3O)C3C(=O)OCC32)ccc1O` (stereo not shown) [Compound 11, Silyamandin] yielded an IC50 [1] of 17.4 ± 0.67 µM.
